Where two headings read alike, the source gives them in different places.

For series [1] the following is noted: ether bond.
Series [2] concerns the target T1, Recombinant human farnesyl transferase (FTase) (Homo sapiens, UniProt P49356).
T1 construct: purchased Crelux (Martinsried, Germany)
The experiment in a line: FTase fluorescence assay (farnesylation of dansyl-GCVLS peptide). The format is biochemical. Conditions: recombinant human FTase 2.5 nM, Dansyl-GCVLS 85 nM, FPP 30 nM, 30° C., 50 minutes.

For series [3] the following is noted: ether bond, 13-membered ring, DMF.
The conditions of series [4]: ether bond, 13-membered ring, SOCl2, then Cs2CO3, 2 steps.
The target of series [5] is T2, geranylgeranyl transferase type-1 (GGTase) (Homo sapiens, UniProt P53609).
T2 construct: purchased Crelux (Martinsried, Germany)
The series can be described thus: GGTase fluorescence assay (dansyl-GCVLL peptide, GGPP). In kind it is biochemical. Conditions: GGTase 25 nM, Dansyl-GCVLL 10 μM, GGPP 10 μM, 30° C., 120 minutes. The source says:
T24/83 cell line was purchased from the European Collection of Authenticated Cell Cultures (Salisbury, UK). Recombinant human farnesyl transferase (FTase) and geranylgeranyl transferase type-1 (GGTase) were obtained from Crelux (Martinsried, Germany). Dansyl labelled GCVLS peptide was purchased from Bachem (Torrance, CA), and Dansyl labelled GCVLL peptide was purchased from Bio Synthesis (Lewisville, TX). Farnesyl Pyrophosphate (FPP) and Geranylgeranyl pyrophosphate (GGPP) were purchased from Cayman (Ann Arbor, MI).
Geranylgeranyl transferase (GGTase) is a closely related enzyme to farnesyl transferase (FTase). The two enzymes share a common regulatory chain but have distinct individual enzymatic domains. GGTase catalyses the addition of an alternative prenylated side chain to some of the same proteins that may also be farnesylated. Thus, selective inhibitory activity against FTase relative to GGTase is a critical characteristic for FTase inhibitors.
The IC50 value of the compounds disclosed herein as inhibitors of Ftase and/or GGTase, was determined by measuring the concentration (provided in nM) necessary to achieve inhibition of enzyme activity by 50% (IC50). […] Compounds having a low IC50 value against FTase, for example an IC50 (FTase)<100 nM, such as an IC50 (FTase)<10 nM, are preferred. Compounds having a low IC50 value against FTase and a high IC50 value against GGTase, for example an IC50 (FTase)<100 nM, such as an IC50 (FTase)<10 nM, and an IC50 (GGTase)>100 nM, are potent and selective inhibitors of FTase, and are particularly preferred.
The inhibition activities of the compounds disclosed herein against Ftase and GGTase were measured in the respective fluorescence assays as follows:
For the GGTase assay, GGTase (25 nM), Dansyl labelled GCVLL peptide (10 μM), GGPP (10 μM) and inhibitor were mixed in assay buffer (50 mM Tris, pH 7.5, 10 mM magnesium chloride, 10 μM zinc chloride, 0.08% CHAPS, 5 mM dithiothreitol) and incubated in a total volume of 20 μL at 30° C. for 120 minutes.
For both the FTase assay and GGTase assay, fluorescence intensity was detected (excitation at 340 nm and emission at 486 nm) using EnVision (PerkinElmer; Waltham, MA), IC50 determinations were performed using a sigmoidal dose-response model with Xlfit software (IDBS, Inc.; Boston, MA), and tipifarnib was used as a positive control. All the assay plates for each assay passed the QC criteria (S/B, Z factor).

The test system of the next series is T24/83 cells. The experiment in a line: T24/83 cell proliferation assay (CellTiter-Glo). In kind it is cell-based. Conditions: Homo sapiens, 96 h, 4 days. The method, boiled down: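 HRAS-mutant T24/83 bladder carcinoma cells seeded at 100 cells/well and grown with inhibitor for 4 days at 37 °C; 0.7% DMSO negative control, 100 μM tipifarnib positive control. Viability by CellTiter-Glo luminescence.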
In general terms: Cellular ATP, detected with luciferase, serves as a proxy for viable cell number.

Series [6] is described as follows: Metabolic stability in human liver microsomes. The format is in vitro ADME. To be noted: human liver microsomes 0.5 mg protein/mL, test compound 1 μM, 37° C.; read-out: T1/2 in HLM. In general terms: Microsomes from liver hold many membrane-bound enzymes, among them those of drug oxidation.
Series [7] in a line: Metabolic stability in mouse liver microsomes. The format is in vitro ADME. To be noted: CD-1 mouse liver microsomes 0.5 mg protein/mL, test compound 1 μM, 37° C.; read-out: T1/2 in MLM.

For `COc1cc2c3cc(ccc3n1)C(O)(c1cncn1C)c1ccc(Cl)c(c1)COc1cccc-2c1` (centres unmarked) [Compound 43, 4^4-chloro-2^2-methoxy-3-(1-methyl-1H-imidazol-5-yl)-6-oxa-2(4,6)-quinolina-1,4(1,3)-dibenzenacyclohexaphan-3-ol], in series [1] (from COc1cc(-c2cccc(O)c2)c2cc(C(O)(c3ccc(Cl)c(CO)c3)c3cncn3C)ccc2n1, Cs2CO3, THF, 9.5 mM, 105.0 °C, 10.0 h, 2 steps), the ring closure, yield of all isomers amounted to 82.9%. Further, the IC50 in series [2] is 10 to 100 nM.
Compound `Cn1cncc1C1(O)c2ccc(Br)c(c2)COc2cccc(c2)-c2cc(Cl)nc3ccc1cc23` (centres unmarked) [Compound 71, 4^4-bromo-2^2-chloro-3-(1-methyl-1H-imidazol-5-yl)-6-oxa-2(4,6)-quinolina-1,4(1,3)-dibenzenacyclohexaphan-3-ol] yielded a ring closure, yield of all isomers in series [1] (from Cn1cncc1C(O)(c1ccc(Br)c(CO)c1)c1ccc2nc(Cl)cc(-c3cccc(O)c3)c2c1, Cs2CO3, DMF, 116.2 mM, 70.0 °C, 2.0 h, 2 steps) of 84%. For the same compound, the IC50 in series [2] was more than 100 nM.
`COc1cc2c3cc(ccc3n1)C(O)(c1nncn1C)c1ccc(Cl)c(c1)COc1cccc-2c1` (centres unmarked) [Compound 49, 4^4-chloro-2^2-methoxy-3-(4-methyl-4H-1,2,4-triazol-3-yl)-6-oxa-2(4,6)-quinolina-1,4(1,3)-dibenzenacyclohexaphan-3-ol] yielded a ring closure, yield of all isomers in series [1] (from COc1cc(-c2cccc(O)c2)c2cc(C(O)(c3ccc(Cl)c(CCl)c3)c3nncn3C)ccc2n1, K2CO3, DMF, 29.8 mM, 55.0 °C, 12.0 h) of 19%. Also, the IC50 in series [2] is more than 100 nM.
As for “4^4-chloro-2^2-methoxy-3-(4-methyl-4H-1,2,4-triazol-3-yl)-6-oxa-2(4,6)-quinolina-1,4(1,3)-dibenzenacyclohexaphan-3-ol”, in series [3] (K2CO3, 29.8 mM, 55.0 °C), the ring closure, isolated yield was found to be 69.1%.
Turning to “4^4-bromo-2^2-chloro-3-(1-methyl-1H-imidazol-5-yl)-6-oxa-2(4,6)-quinolina-1,4(1,3)-dibenzenacyclohexaphan-3-ol”, the ring closure, crude yield in series [4] (DMF, 116.2 mM, 70.0 °C) turned out to be 84%.
In series [1] (from COc1cc(-c2cccc(O)c2)c2cc(C(O)(c3ccc(Br)c(CO)c3)c3cncn3C)ccc2n1, Cs2CO3, DMF, 122.7 mM, 70.0 °C, 0.5 h, 2 steps), `COc1cc2c3cc(ccc3n1)C(O)(c1cncn1C)c1ccc(Br)c(c1)COc1cccc-2c1` (centres unmarked) [Compound 52, 4^4-bromo-2^2-methoxy-3-(1-methyl-1H-imidazol-5-yl)-6-oxa-2(4,6)-quinolina-1,4(1,3)-dibenzenacyclohexaphan-3-ol] gave a ring closure, yield of all isomers of 84.8%. Also, the IC50 in series [2] lay within 10 to 100 nM.
The compound “4^4-bromo-3-(1-methyl-1H-imidazol-5-yl)-6-oxa-2(1,7)-isoquinolina-1,4(1,3)-dibenzenacyclohexaphan-3-ol” registered a ring closure, isolated yield in series [3] (Cs2CO3, 77.0 mM, 50.0 °C) of 60.6%.
In the case of “4^6-chloro-2^2-methoxy-3-(1-methyl-1H-imidazol-5-yl)-6-oxa-2(4,6)-quinolina-4(3,5)-pyridina-1(1,3)-benzenacyclohexaphan-3-ol”, in series [4] (DMF, 64.5 mM, 70.0 °C), the ring closure, crude yield is 95.6%.
As for `[2H]C([2H])([2H])n1c(=O)cc2c3cc(ccc31)[C@@](N)(c1cncn1C)c1ccc(C#N)c(c1)CCc1cccc-2c1` [(R)-8, (R)-3-amino-2^1-(methyl-d3)-3-(1-methyl-1H-imidazol-5-yl)-2^2-oxo-2^1,2^2-dihydro-2(4,6)-quinolina-1,4(1,3)-dibenzenacyclohexaphane-4^4-carbonitrile], the IC50 in series [2] is not above 10 nM; in series [5], more than 1000 nM; in the series with T24/83 cells, not above 50 nM. Moreover, the half-life at 1 μM in series [6] is less than 30 min; in series [7] it was 5 to 15 min.
In series [4] (DMF, 122.7 mM, 70.0 °C), “4^4-bromo-2^2-methoxy-3-(1-methyl-1H-imidazol-5-yl)-6-oxa-2(4,6)-quinolina-1,4(1,3)-dibenzenacyclohexaphan-3-ol” displayed a ring closure, crude yield of 84.8%.
Compound “4^4-chloro-2^2-methoxy-3-(1-methyl-1H-imidazol-5-yl)-6-oxa-2(4,6)-quinolina-1,4(1,3)-dibenzenacyclohexaphan-3-ol” had a ring closure, crude yield in series [4] (DMF/THF 1:3, 9.96 mM, 105.0 °C) of 90.7%.
As for `COc1cc2c3cc(ccc3n1)C(O)(c1cncn1C)c1cnc(Cl)c(c1)COc1cccc-2c1` (centres unmarked) [Compound 59, 4^6-chloro-2^2-methoxy-3-(1-methyl-1H-imidazol-5-yl)-6-oxa-2(4,6)-quinolina-4(3,5)-pyridina-1(1,3)-benzenacyclohexaphan-3-ol], the ring closure, yield of all isomers in series [1] (from COc1cc(-c2cccc(O)c2)c2cc(C(O)(c3cnc(Cl)c(CO)c3)c3cncn3C)ccc2n1, SOCl2 then Cs2CO3, DMF, 64.5 mM, 70.0 °C, 1.0 h, 2 steps) was determined as 95.6%. Further, in series [2], the IC50 is more than 100 nM.
On to `[2H]C([2H])([2H])n1c(=O)cc2c3cc(ccc31)[C@@](N)(c1cncn1C)c1ccc(C#N)c(c1)OCc1cccc-2c1` [(S)-20, (S)-3-amino-2^1-(methyl-d3)-3-(1-methyl-1H-imidazol-5-yl)-2^2-oxo-2^1,2^2-dihydro-5-oxa-2(4,6)-quinolina-1,4(1,3)-dibenzenacyclohexaphane-4^4-carbonitrile], for which the IC50 in series [2] was not above 10 nM; in series [5], more than 1000 nM; in the series on T24/83 cells, not above 50 nM. Also, the half-life at 1 μM was more than 100 min in series [6] and more than 15 min in series [7].

A word on the IC50: it is the point on the concentration scale where inhibition reaches its midpoint.

The record behind these values is patent publication US12018011B2, “Macrocyclic compounds and compositions, and methods of preparing and using the same” (Kura Oncology, Inc., priority 2021, dated 2024).
